How the values were obtained:
Assay type in all cases: in vivo
Spodoptera frugiperda = Spodoptera frugiperda - spray test; settings: in Zea mays, 168 h, read-out: mortality in %
Procedure, shortened: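 Caterpillars are placed on sprayed, dried maize leaf sections. Sprays contain compound diluted in water with emulsifier at 1000 ppm; mortality in % is determined 7 days later.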

Aphis gossypii = Aphis gossypii - oral test; settings: 120 h, read-out: mortality in %
Procedure, shortened: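 Mixed-population cotton aphids feed through parafilm on compound (acetone stock diluted in water) mixed with IPL41 insect medium containing sugar. Mortality (%) scored after 5 days.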

Nezara viridula [1] = assay: Nezara viridula - spray test 2; settings: 96 h, barley plants, larvae, after 4 days
Description: Nezara viridula—Spray Test 2
(§1) To produce a suitable preparation of active compound, 1 part by weight of active compound is mixed with the stated amount of solvent, and the concentrate is diluted with water, containing an emulsifier concentration of 1000 ppm, to the desired concentration. Ammonium salt and/or penetration enhancer in a dosage of 1000 ppm are added to the desired concentration if necessary.
Barley plants (Hordeum vulgare) infested with larvae of the southern green stink bug (Nezara viridula) are sprayed with a test solution containing the desired concentration of the active ingredient.
After 4 days mortality in % is determined. 100% means all the stink bugs have been killed; 0% means none of the stink bugs have been killed.

Diabrotica balteata = Diabrotica balteata - spray test; settings: 168 h, 160 μg/well, germinated wheat seeds, larvae, after 7 days, read-out: efficacy in %
Procedure, shortened: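 Wheat seeds germinated 1 day on agar were sprayed with compound diluted in water with 1000 ppm emulsifier, then infested with 10-20 Diabrotica balteata larvae. Efficacy in % scored after 7 days: 100% = seedlings grown as untreated, uninfected control; 0% = no seedlings grown.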

Phaedon cochleariae = Phaedon cochleariae - spray test; settings: in Brassica rapa, foliar, 168 h, read-out: mortality in %
Procedure, shortened: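 Chinese cabbage leaf disks sprayed with compound diluted in water containing 1000 ppm emulsifier, then infested with mustard beetle larvae once dry. Mortality in % scored after 7 days (100% = all larvae killed, 0% = none).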

Nilaparvata lugens [2] = assay: Nilaparvata lugens - spray test 1; settings: in Oryza sativa, 96 h, read-out: mortality in %, 500 g/ha, rice plants, after 4 days
Procedure, shortened: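 Rice plants (Oryza sativa) were sprayed with the compound preparation in water containing 1000 ppm emulsifier, then infested with brown planthoppers. Percent mortality scored after 4 days (100% = all killed, 0% = none).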

Nilaparvata lugens [3] = assay: Nilaparvata lugens - spray test 2; settings: 96 h, rice plants, larvae, after 4 days
Description: Nilaparvata lugens —Spray Test 2
as §1, with “solvents” for “solvent,”, “and” for “and the concentrate”, “concentration. Further test concentrations are prepared by dilution with emulsifier containing water.” for “concentration.”
Rice plants (Oryza sativa) are treated by being sprayed with the desired concentration of the active compound and are infested with larvae of the brown planthopper (Nilaparvata lugens).
After 4 days mortality in % is determined. 100% means all planthoppers have been killed and 0% means none of the planthoppers have been killed.

Myzus persicae [4] = assay: Myzus persicae - oral test; settings: 120 h, read-out: mortality in %
Procedure, shortened: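 Mixed-population green peach aphids fed through parafilm on compound diluted in water plus IPL41 insect medium (33%+15% sugar). Mortality (%) scored after 5 days, 100% meaning all aphids killed.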

Nezara viridula [5] = assay: Nezara viridula - spray test 1; settings: in Hordeum vulgare, 96 h, read-out: mortality in %
Procedure, shortened: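 Barley plants carrying southern green stink bug larvae were sprayed with compound diluted in water with 1000 ppm emulsifier. Mortality (%) was scored after 4 days.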

Myzus persicae [6] = assay: Myzus persicae - spray test; settings: foliar, 120 h, Chinese cabbage leaf disks, all instars, after 5 days
Description: Myzus persicae—Spray Test
(§2) To produce a suitable preparation of active compound, 1 part by weight of active compound is mixed with the stated amount of solvents and is diluted with water, containing an emulsifier concentration of 1000 ppm, to the desired concentration. Further test concentrations are prepared by dilution with emulsifier containing water.
Chinese cabbage (Brassica pekinensis) leaf disks infected with all instars of the green peach aphid (Myzus persicae), are sprayed with a preparation of the active ingredient of the desired concentration.
After 5 days mortality in % is determined. 100% means all aphids have been killed and 0% means none of the aphids have been killed.

[7] = test system: Aedes aegypti strain MONHEIM; assay: Aedes test (AEDSAE surface treatment & contact assay); settings: 30 minutes exposure, 24 hours after contact, read-out: efficacy (mortality in percent); for mortality at 4 mg/m2: surface concentration 4 mg/m^2, glazed tile; for mortality at 20 mg/m2: surface concentration 20 mg/m^2, glazed tile; for mortality at 100 mg/m2: surface concentration 100 mg/m^2, glazed tile
Procedure, shortened: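 Compound in acetone plus 2000 ppm RME applied to glazed tile; after acetone evaporation, adult mosquitoes held on dried surface for 30 minutes. Percent mortality scored 24 hours after contact.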

Culex quinquefasciatus = assay: Culex test (CULXFAS surface treatment & contact assay); settings: 30 minutes exposure, 24 hours after contact, read-out: efficacy (mortality in percent); for mortality at 4 mg/m2: surface concentration 4 mg/m^2, glazed tile; for mortality at 20 mg/m2: surface concentration 20 mg/m^2, glazed tile; for mortality at 100 mg/m2: surface concentration 100 mg/m^2, glazed tile
Procedure, shortened: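 Test compound dissolved in acetone + 2000 ppm rapeseed oil methyl ester, applied to glazed tile and acetone evaporated; adult mosquitoes exposed on dried surface for 30 minutes. Mortality (%) scored 24 hours after contact; 100% = all insects dead, 0% = none dead.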

[8] = test system: Anopheles funestus strain FUMOZ-R; assay: Anopheles test (ANPHFU surface treatment & contact assay); settings: 30 minutes exposure, 24 hours after contact, read-out: efficacy (mortality in percent); for mortality at 4 mg/m2: surface concentration 4 mg/m^2, glazed tile; for mortality at 20 mg/m2: surface concentration 20 mg/m^2, glazed tile; for mortality at 100 mg/m2: surface concentration 100 mg/m^2, glazed tile
Excerpt: Anopheles Test (ANPHFU Surface Treatment & Contact Assay)
Solvent: Acetone+2000 ppm rapeseed oil methyl ester (RME)
In order to produce a sufficient, active ingredient containing solution it is necessary to solve the test-compound in an acetone/RME solvent mixture. This solution is pipetted onto a glazed tile and after evaporation of the acetone, adult mosquitoes of the species Anopheles funestus strain FUMOZ-R (Hunt et al., Med Vet Entomol. 2005 Sep. 19(3):271-5) are placed onto the dried surface. The exposure time is 30 minutes.
Mortality in percent (%) is determined 24 hours after contact to the treated surface. 100% mortality means that all test-insects are dead, whereas 0% means that not a single insect died.

Meloidogyne incognita = Meloidogyne incognita - test; settings: 336 h, salad seedlings in sand, after 14 days, read-out: nematicidal activity (percentage of gall formation)
Description: Meloidogyne incognita—Test
Solvent: 125.0 parts by weight of acetone
To produce a suitable preparation of active compound, 1 part by weight of active compound is mixed with the stated amount of solvent, and the concentrate is diluted with water to the desired concentration.
Vessels are filled with sand, a solution of the active ingredient, a suspension containing eggs and larvae of the southern root-knot nematode (Meloidogyne incognita) and salad seeds. The salad seeds germinate and the seedlings grow. Galls develop in the roots.
After 14 days the nematicidal activity is determined on the basis of the percentage of gall formation. 100% means no galls were found and 0% means the number of galls found on the roots of the treated plants was equal to that in untreated control plants.

Tetranychus urticae = Tetranychus urticae - spray test OP-resistant; settings: foliar, 144 h, French bean leaf disks, all instars, after 6 days
Description: Tetranychus urticae—Spray Test OP-Resistant
as §2
French bean (Phaseolus vulgaris) leaf disks infected with all instars of the two spotted spidermite (Tetranychus urticae), are sprayed with a preparation of the active ingredient of the desired concentration.
After 6 days mortality in % is determined. 100% means all spider mites have been killed and 0% means none of the spider mites have been killed.

[9] = test system: Musca domestica strain WHO-N; assay: Musca domestica test (MUSCDO surface treatment & contact assay); settings: 30 minutes exposure, 24 hours after contact, read-out: efficacy (mortality in percent)
Procedure, shortened: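 Compound in acetone with 2000 ppm rapeseed oil methyl ester applied to glazed tile; after acetone evaporation, adult Musca domestica WHO-N flies exposed on dried surface for 30 minutes. Mortality (%) assessed 24 hours after contact.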

Compound	mortality at 500 g/ha (Spodoptera frugiperda)	mortality at 100 ppm (Aphis gossypii)	pest or weed control at 160 µg/disc, 160 µg/well (Diabrotica balteata)	mortality at 500 g/ha (Phaedon cochleariae)	mortality at 500 g/ha (Nilaparvata lugens [2])	mortality at 20 ppm (Myzus persicae [4])	mortality at 500 g/ha (Nezara viridula [5])	mortality at 500 g/ha (Myzus persicae [6])	other results
CC(c1ncnn1-c1ncccn1)N(CC1CC1)C(=O)c1cc(Cl)cc(C(F)(F)F)c1 (centres unmarked) [Compound I-40, 3-chloro-N-(cyclopropylmethyl)-N-[1-(2-pyrimidin-2-yl-1,2,4-triazol-3-yl)ethyl]-5-(trifluoromethyl)benzamide]	100%	100%	100%	100%	100%	100%	100%	90%	mortality at 500 g/ha (Nezara viridula [1]): 100%; mortality at 500 g/ha (Nilaparvata lugens [3]): 100%
CC(NC(=O)c1cc(Cl)cc(C(F)(F)F)c1)c1ncnn1-c1ncccn1 (centres unmarked) [Compound I-76]	100%	100%	100%	100%	100%	100%	100%		mortality at 500 g/ha (Nezara viridula [1]): 100%; mortality at 500 g/ha (Nilaparvata lugens [3]): 100%
C[C@@H](c1ncnn1-c1ncccn1)N(CC1CC1)C(=O)c1cc(Cl)cc(C(F)(F)F)c1 [Compound I-93, 3-chloro-N-(cyclopropylmethyl)-N-[(1S)-1-(2-pyrimidin-2-yl-1,2,4-triazol-3-yl)ethyl]-5-(trifluoromethyl)benzamide]	100%	100%	100%	100%	100%	100%		100%	mortality at 4 mg/m2 [7]: 80 to 100%; mortality at 20 mg/m2 [7]: 80 to 100%; mortality at 100 mg/m2 [7]: 80 to 100%; mortality at 500 g/ha (Nezara viridula [1]): 100%; mortality at 500 g/ha (Nilaparvata lugens [3]): 100%; mortality at 4 mg/m2 (Culex quinquefasciatus): 80 to 100%; mortality at 20 mg/m2 (Culex quinquefasciatus): 80 to 100%; mortality at 100 mg/m2 (Culex quinquefasciatus): 80 to 100%; mortality at 4 mg/m2 [8]: 80 to 100%; mortality at 20 mg/m2 [8]: 80 to 100%; mortality at 100 mg/m2 [8]: 80 to 100%; pest or weed control at 20 ppm (Meloidogyne incognita): 100%
CC(c1ncnn1-c1ncccn1)N(CC#N)C(=O)c1cc(Cl)cc(C(F)(F)F)c1 (centres unmarked) [Compound I-96]	100%				100%		100%	90%	mortality at 500 g/ha (Tetranychus urticae): 90%
C[C@H](NC(=O)c1cc(Cl)cc(C(F)(F)F)c1)c1ncnn1-c1ncccn1 [Compound I-113, 3-chloro-N-[(1S)-1-(2-pyrimidin-2-yl-1,2,4-triazol-3-yl)ethyl]-5-(trifluoromethyl)benzamide]	100%	100%	100%	100%	100%	100%	100%		mortality at 4 mg/m2 [7]: 80 to 100%; mortality at 20 mg/m2 [7]: 80 to 100%; mortality at 100 mg/m2 [7]: 80 to 100%; mortality at 4 mg/m2 (Culex quinquefasciatus): 80 to 100%; mortality at 20 mg/m2 (Culex quinquefasciatus): 80 to 100%; mortality at 100 mg/m2 (Culex quinquefasciatus): 80 to 100%; mortality at 4 mg/m2 [8]: 80 to 100%; mortality at 20 mg/m2 [8]: 80 to 100%; mortality at 100 mg/m2 [8]: 80 to 100%; mortality at 4 mg/m2 ([9]; surface concentration 4 mg/m^2, glazed tile): 80 to 100%; mortality at 20 mg/m2 ([9]; surface concentration 20 mg/m^2, glazed tile): 80 to 100%
CC(c1ncnn1-c1ncccn1)N(CC(F)F)C(=O)c1cccc(C(F)(F)F)c1 (centres unmarked) [Compound I-123]	100%				100%		100%	90%	mortality at 500 g/ha (Tetranychus urticae): 100%
CC(NC(=O)c1cc(Cl)cc(Cl)c1)c1ncnn1-c1ncccn1 (centres unmarked) [Compound I-124]	100%				90%		100%	90%	
CC(NC(=O)c1cc(Cl)cc(Br)c1)c1ncnn1-c1ncccn1 (centres unmarked) [Compound I-125, 3-bromo-5-chloro-N-[1-(2-pyrimidin-2-yl-1,2,4-triazol-3-yl)ethyl]benzamide]	100%		100%				100%	90%	
CC(NC(=O)c1cc(Cl)cc(I)c1)c1ncnn1-c1ncccn1 (centres unmarked) [Compound I-126, 3-chloro-5-iodo-N-[1-(2-pyrimidin-2-yl-1,2,4-triazol-3-yl)ethyl]benzamide]	100%		100%				100%	90%	
C[C@@H](c1ncnn1-c1ncccn1)N(CC(F)F)C(=O)c1cc(Cl)cc(C(F)(F)F)c1 [Compound I-127, 3-chloro-N-(2,2-difluoroethyl)-N-[(1S)-1-(2-pyrimidin-2-yl-1,2,4-triazol-3-yl)ethyl]-5-(trifluoromethyl)benzamide]	100%		100%				100%	100%	
C[C@H](NC(=O)c1cncc(Br)c1)c1ncnn1-c1ncccn1 [Compound I-134]			100%		100%		100%	90%	
